# Key:
# [1] = SYTOX Green cell viability assay; format: cell-based, human; conditions: human, hiPSC (DF6-9-9T) cells
# Procedure: (§1) In Vitro Toxicity Assays: Treatment with small molecules or glucose deprivation was initiated in hESC or hiPSC at 24 and 96 h post-plating and in vitro toxicity assays were performed at specified treatment endpoints 24-96 hours after treatment initiation. […] Neutral red assays for cell viability were performed as previously described. In vitro cell death was determined using SYTOX® Green nucleic acid stain (Life Technologies). Briefly, cells were incubated in 5 μM SYTOX® Green for 30 minutes at 37° C. in a humidified cell incubator with 5% CO2. Percent cell viability was determined by normalizing to replicate cells incubated with 120 μM digitonin (Sigma-Aldrich) and 5 μM SYTOX® Green. Imaging of cell viability was performed using Live/Dead® Viability/Cytotoxicity Kit, for mammalian cells (Life Technologies). Cells were stained for 20 minutes at room temperature with 4 μM Calcein AM to detect viable cells and 2 μM Ethidium Homodimer 1 to detect cells with compromised membranes. Representative images of alterations in cell morphology were acquired on confluent hPSC 24-72 hours after treatment initiation. Imaging was performed with a Nikon Ti-U inverted microscope.
# [2] = Neutral red cell viability assay in hiPSC; format: cell-based, human; conditions: human, hiPSC (DF6-9-9T) cells; 72 hours after start of treatment; both confluent and sub-confluent cells; 2.5 μM; read-out: viable cells remaining
# Procedure: (§2) Neutral red assays for cell viability were performed as previously described. In vitro cell death was determined using SYTOX® Green nucleic acid stain (Life Technologies). Briefly, cells were incubated in 5 μM SYTOX® Green for 30 minutes at 37° C. in a humidified cell incubator with 5% CO2. […] Imaging of cell viability was performed using Live/Dead® Viability/Cytotoxicity Kit, for mammalian cells (Life Technologies). Cells were stained for 20 minutes at room temperature with 4 μM Calcein AM to detect viable cells and 2 μM Ethidium Homodimer 1 to detect cells with compromised membranes. […] Imaging was performed with a Nikon Ti-U inverted microscope.
# hiPSC (DF6-9-9T) = assay: Neutral red cell viability assay in hiPSC; format: cell-based, human; conditions: for LD50: 24 hour pulse treatment, viability 72 hours after treatment initiation
# Procedure: as §2
# [3] = test system: confluent hiPSC (DF6-9-9T); assay: Bright field imaging of cell morphology; format: cell-based, human
# Procedure: as §1
# ARPE-19 = assay: Viability and morphology of retinal pigmented epithelial cells; format: cell-based
# Text: (§3) Data expressed as mean+S.D. (n=4); p<0.05, **p<0.01, ***p<0.001. […] Data expressed as mean+S.D. (n=4), *p<0.05, **p<0.01, ***p<0.001.
# [4] = test system: DF6-9-9T hiPSC in co-culture with day 10 cardiomyocytes or human fibroblasts; assay: Colony formation assay in co-cultures of hiPSC with differentiated cells; format: cell-based; conditions: 5 μM
# Procedure: The first iteration was adapted from previously described method, after 24 hours of treatment, hiPSC were detached with Accutase (StemCell Technologies), re-suspended in E8, passed though 12×75 mm tube with cell strainer cap (Falcon), and plated at 5e4 live cells per 2 cm^2. Media were changed every 48 hours and cells were cultured for six days, at which time staining for alkaline phosphatase was performed with leukocyte alkaline phosphatase kit (Sigma-Aldrich) as described and plates were visually inspected for phosphatase-positive colonies. This strategy represents the most common implementation of the colony formation assay. However, concerns regarding the cell death normally encountered during passaging prompted another approach for stricter assessment. In the second iteration, cells were treated for 24 hours, washed twice with 0.5 mL D-PBS, and media refreshed with E8. Thereafter, media were replaced daily for six days at which point staining for alkaline phosphatase activity was performed. […] Elimination of hiPSC from co-cultures with differentiated cells was performed with human fibroblasts and day 10 cardiomyocytes derived from hiPSC. hiPSC (DF6-9-9T) were plated at concentrations ranging from 100-10,000 live cells per well with human fibroblasts (1.75e5 cells) or day 10 differentiated cardiomyocytes (3.75e5 cells) in E8 and Y-27632 per 9.6 cm^2. […]
# sub-confluent hiPSC = assay: Immunoblot analysis of p-AMPK, AMPK, cleaved caspase-3 and -9; format: cell-based, human; conditions: 2.5 μM STF-31, 30 μM WZB117
# Procedure: Immunoblot Analysis: Non-adherent cells were collected by centrifugation, adherent cells were washed once with d-PBS and lysed in Laemmli buffer, combined with non-adherent cell pellet, and heated at 95° C. for 5 minutes. Protein concentration was measured using the Qubit protein assay (Life Technologies). 25 μg of total protein was separated by SDS-PAGE, transferred to nitrocellulose membrane (GE Healthcare Life Sciences) and blocked according to the manufacturer's instructions. Membranes were incubated overnight at 4° C. with the following dilutions of primary antibodies: rabbit anti-cleaved caspase-3 (1:500), rabbit anti-caspase-9 (1:1000), rabbit anti-phospho-AMPK (1:1000), and rabbit anti-AMPK (1:1,000) from Cell Signaling Technology, and mouse anti-GAPDH (1:10,000) from Life Technologies. Membranes were then incubated with secondary antibodies for 45 minutes at the following concentrations: donkey anti-mouse-horseradish peroxidase (1:5,000) and donkey anti-rabbit-horseradish peroxidase (1:7,000) from Jackson Immunoresearch Laboratories, Inc., followed by detection using enhanced chemiluminescence.
# hiPSC = assay: Nucleotide pool measurements (HPLC); format: cell-based, human
# Procedure: Nucleotide Pool Measurements: ATP, ADP, AMP, and NAD^+ were extracted using perchloric acid precipitation and analyzed using HPLC, following a previously published method. ATP, ADP, AMP and NAD^+ peaks were measured for each sample, compared with the standards, and normalized to protein levels.
# [5] = test system: PAX6 positive neural progenitor cells; format: cell-based
# Text: as §3
# [6] = DMSO; cited from earlier work
# [7] = short term treatment (24 hours), 2.5 μM
compound,measurement,setting,value
"CC(C)(C)c1ccc(S(=O)(=O)NCc2ccc(C(=O)Nc3cccnc3)cc2)cc1 [STF-31, 4-[[[[4-(1,1-Dimethylethyl)phenyl]sulfonyl]amino]methyl]-N-3-pyridinyl-benzamide]","viability at 72 h, 2.5 μM",[1],10%
same,"viability at 72 h, 2.5 μM",[2],< 2%
same,LD50,hiPSC (DF6-9-9T); confluent hiPSC,1.78 µM
same,LD50,hiPSC (DF6-9-9T); sub-confluent hiPSC,1.35 µM
same,effect of increasing concentration on time of significant toxicity,"hiPSC (DF6-9-9T); concentrations up to 100 μM, neutral red",did not accelerate the time
same,median lethal dose (LD50),"hiPSC (DF6-9-9T); confluent hiPSC, 48 hours after continuous treatment, neutral red",182 nM
same,minimal treatment time to achieve complete toxicity of hPSC,hiPSC (DF6-9-9T); data not shown,24 h
same,morphology of hiPSC,"[3]; 2.5 μM STF-31, 24 hour incubation",did not modify the morphology
same,morphology of hiPSC,"[3]; 2.5 μM STF-31, 48 hour treatment","patches of diminished, non-adherent cells and reduction in overall cell number"
same,morphology of hiPSC,"[3]; 72 hours, 2.5 μM STF-31, 30 μM WZB117, 20 μM PluriSIn",highly toxic
same,ARPE cell morphology or viability,ARPE-19; 2.5 μM for up to 72 hours,no adverse effects
same,toxicity,ARPE-19; [7],does not result in significant toxicity
same,cell viability,"ARPE-19; treatment time extended to 72 hours, data not shown",did not result in a decrease in cell viability
same,elimination of hiPSC colonies from co-culture,"[4]; 24-hour pulse, day 10 cardiomyocytes",elimination of a majority of hiPSC colonies
same,elimination of hiPSC colonies from co-culture,"[4]; 48 hour pulse, day 10 cardiomyocytes or human fibroblasts",completely eliminate hiPSC
same,time at which cleaved caspase-3 and -9 are observed,sub-confluent hiPSC,significantly later
same,time at which p-AMPK is detected/increased,sub-confluent hiPSC; post-treatment,24 h
same,time until ATP levels decrease,hiPSC; 2.5 μM STF-31,18 h
same,NAD+ levels,"hiPSC; 2.5 μM STF-31, by 3 hours",−50%
same,NAD+ levels,"hiPSC; 2.5 μM STF-31, by 18 hours",< 1%
same,viability (MTT) and immunofluorescence compared with controls,"[5]; 2.5 μM for 72 hours, day 10 and day 12 progenitors",indistinguishable from controls
same,toxicity,[5]; [7],does not result in significant toxicity
same,solubility,[6],soluble in DMSO

# — patent US11959096B2, “Methods for selective inhibition of pluripotent stem cells” (THE MEDICAL COLLEGE OF WISCONSIN, INC., priority 2014, dated 2024)
